Measurements as given in the supplement of paper PMC11208160.

Assay: recombinant UMI read abundance after kanamycin selection (control-corrected) (log10(CPM+1)); higher = more efficient recombination; extreme values may be limits of the assay; sequences stand for … in AGTGCAGAGAAAATCGGCCAGTTTTCTCTGCCTGCAGTCCGCATGCCGTGGGACCCCTTGGGTTCTAACCTGTTGCCTAGATTTATGCAGCGGACTGCCTTTCTCCCAAAGTGATAAACCGG…AGGTTGGTTTCACT; site = the 11-nt donor
Summary of the method: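 In Escherichia coli, a pool of donor and donor-binding-loop pairs, each with a 12-nt UMI, was tested for the IS621 bridge recombinase. Plating was on IPTG (0.07 mM) plus kanamycin, or without selection, in two replicates. Recombinant UMIs were amplified by PCR across the donor–target junction and sequenced, and counts were reported as log10(CPM+1) after averaging and control-derived scaling.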
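Note: IS621 bridge recombinase in Escherichia coli cells against a fixed T5 target plasmid.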

Sequence	recombinant UMI read abundance (log10)
GTCGTCGCATGGACCGGTTTTCCCGGTAATCCGTATTTGCG (site GTTGTCGCTCG)	0.0186
CTGGAACCATGGACCGGTTTTCCCGGTAATCCGTATTTGCA (site CTGGAATCTTG)	2.36
AATTTAACATGGACCGGTTTTCCCGGTAATCCGTATTTGCT (site AATGTAACTAG)	0.828
GGCGAGGCATGGACCGGTTTTCCCGGTAATCCGTATTTGTC (site GGCGAGGCTGA)	2.23
AACAAACCATGGACCGGTTTTCCCGGTAATCCGTATTTGGT (site TACAAACCTAC)	0.337
AGGAAATCATGGACCGGTTTTCCCGGTAATCCGTATTTGGT (site AGGAAATCTAC)	1.73
CAAATACCATGGACCGGTTTTCCCGGTAATCCGTATTTGAC (site CAAATACCTGT)	0
CCTATATCATGGACCGGTTTTCCCGGTAATCCGTATTTGTC (site CCTATATCTGA)	0
TTAGCTACATGGACCGGTTTTCCCGGTAATCCGTATTTGTG (site TTAGCTACTCA)	0.319
GGGGAATCATGGACCGGTTTTCCCGGTAATCCGTATTTGGG (site GGGGAATCTCC)	0.39
GCGGCACCATGGACCGGTTTTCCCGGTAATCCGTATTTGCA (site GAGGCACCTTG)	0.00511
CGCAGAACATGGACCGGTTTTCCCGGTAATCCGTATTTGTA (site CGCAGAACTTA)	2.19
GCGTGCCCATGGACCGGTTTTCCCGGTAATCCGTATTTGAT (site GCATGCCCTAT)	0.417
CCCTTCTCATGGACCGGTTTTCCCGGTAATCCGTATTTGTG (site CCCTTCTCTCA)	0.583
GAATCTACATGGACCGGTTTTCCCGGTAATCCGTATTTGCG (site GAATCTACTCG)	1.04
TCGTTGTCATGGACCGGTTTTCCCGGTAATCCGTATTTGAA (site TCGTTGTCTTT)	0.876
TTCTATACATGGACCGGTTTTCCCGGTAATCCGTATTTGAC (site TTCTATACTGT)	0.00704
TCCTACTCATGGACCGGTTTTCCCGGTAATCCGTATTTGCA (site TCTTACTCTTG)	0
CGAGTATCATGGACCGGTTTTCCCGGTAATCCGTATTTGAC (site CAAGTATCTGT)	2.57

Sequence	recombinant UMI read abundance (log10)
ATATCGCCATGGACCGGTTTTCCCGGTAATCCGTATTTGAT (site ATATCGCCTAT)	0.284
TCCGCAGCATGGACCGGTTTTCCCGGTAATCCGTATTTGAA (site TCCGCAGCTTT)	0.0198
ACGAAAACATGGACCGGTTTTCCCGGTAATCCGTATTTGTT (site ACGAAAACTAA)	1.37
AGGAAGACATGGACCGGTTTTCCCGGTAATCCGTATTTGCG (site AGGAAGACTCG)	2.32
CGGAGATCATGGACCGGTTTTCCCGGTAATCCGTATTTGCT (site CGGAAATCTAG)	1.27
TTAAGGCCATGGACCGGTTTTCCCGGTAATCCGTATTTGAC (site TTAAGGCCTGT)	0
ACCCCAACATGGACCGGTTTTCCCGGTAATCCGTATTTGAC (site ACCCCAACTGT)	2.49
TAGTTAGCATGGACCGGTTTTCCCGGTAATCCGTATTTGAA (site TAGATAGCTTT)	0.0157
TCCTTCTCATGGACCGGTTTTCCCGGTAATCCGTATTTGGG (site CCCTTCTCTCC)	0.00366
TATCCTTCATGGACCGGTTTTCCCGGTAATCCGTATTTGGT (site TACCCTTCTAC)	0.0066
GCCACACCATGGACCGGTTTTCCCGGTAATCCGTATTTGTA (site GCCACACCTTA)	0.0107
CCAGGGGCATGGACCGGTTTTCCCGGTAATCCGTATTTGAT (site CCAGGGGCTAT)	1.04
TATTTGGCATGGACCGGTTTTCCCGGTAATCCGTATTTGTA (site TATTTGGCTCA)	0.0148
GTGTTGCCATGGACCGGTTTTCCCGGTAATCCGTATTTGGC (site GTGTTGCCTGC)	0
CCCCAAACATGGACCGGTTTTCCCGGTAATCCGTATTTGTA (site CCCCATACTTA)	0.102
TGTTCCCCATGGACCGGTTTTCCCGGTAATCCGTATTTGTG (site TGTTCCCCTCA)	0.0316
GTTTGGACATGGACCGGTTTTCCCGGTAATCCGTATTTGAC (site GATTGGACTGT)	0
AAGCGGGCATGGACCGGTTTTCCCGGTAATCCGTATTTGAC (site AAGCGGGCTGT)	1.62
TGCAATTCATGGACCGGTTTTCCCGGTAATCCGTATTTGCC (site TCCAATTCTGG)	0

Sequence	recombinant UMI read abundance (log10)
GCCTAGCCATGGACCGGTTTTCCCGGTAATCCGTATTTGTG (site GCCTAGCCTCA)	0.155
GGTGTGGCATGGACCGGTTTTCCCGGTAATCCGTATTTGGT (site GGTGTGGCTAC)	0.636
ATCTACACATGGACCGGTTTTCCCGGTAATCCGTATTTGAC (site ATCTACACTGT)	2.83
CGACCATCATGGACCGGTTTTCCCGGTAATCCGTATTTGCG (site CGACCATCTCG)	2.23
CACTGCTCATGGACCGGTTTTCCCGGTAATCCGTATTTGAA (site CATTGCTCTTT)	0.0128
GCTTGCGCATGGACCGGTTTTCCCGGTAATCCGTATTTGAT (site GCTTGCCCTAT)	0.00863
GAGGAATCATGGACCGGTTTTCCCGGTAATCCGTATTTGCG (site GAGGAATCTCG)	2.47
GACAGACCATGGACCGGTTTTCCCGGTAATCCGTATTTGGT (site GACACACCTAC)	0.00419
TTGTTGCCATGGACCGGTTTTCCCGGTAATCCGTATTTGGT (site TTGTTGCCTAC)	0.0353
TCCAGTTCATGGACCGGTTTTCCCGGTAATCCGTATTTGCC (site TCCAATTCTGG)	0
TGCCACGCATGGACCGGTTTTCCCGGTAATCCGTATTTGTC (site TGCCACGCTGA)	2.07
CCTATATCATGGACCGGTTTTCCCGGTAATCCGTATTTGTC (site CCCATATCTGA)	0.00678
ACTTAGTCATGGACCGGTTTTCCCGGTAATCCGTATTTGCC (site ACTTAGTCTGG)	2.47
TGCAATTCATGGACCGGTTTTCCCGGTAATCCGTATTTGCC (site TTCAATTCTGG)	0
CATGGAACATGGACCGGTTTTCCCGGTAATCCGTATTTGGA (site CATGGAACTTC)	1.99
CGGAGATCATGGACCGGTTTTCCCGGTAATCCGTATTTGCT (site CGGACATCTAG)	0
GCCGGGCCATGGACCGGTTTTCCCGGTAATCCGTATTTGCA (site GCCGGGCCTTG)	0
GGTCCCACATGGACCGGTTTTCCCGGTAATCCGTATTTGTA (site GGTCCTACTTA)	0.0287
TGTCGGACATGGACCGGTTTTCCCGGTAATCCGTATTTGCG (site TGTCGGACTCG)	1.4
